From PubChem BioAssay (NCI)
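Values below derive from 48-hour exposures of cells grown in 96-well plates, with endpoints linearly interpolated between the two concentrations bracketing the appropriate inhibition level. The concentration for 50% growth inhibition is given as GI50. TGI: total growth inhibition.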

Legend:
Assay in all cases: inhibition of tumour cell growth, NCI panel, 48 h
[1] = tested on: HOP-92 NSCLC
[2] = tested on: MOLT-4 leukemia
[3] = tested on: MDA-MB-435
[4] = tested on: COLO 205 colon
[5] = tested on: SK-OV-3 ovarian
[6] = tested on: KM12 colon
[7] = tested on: HCT-116 colon
[8] = tested on: IGROV1 ovarian
[9] = tested on: SF-268 CNS
[10] = tested on: U251 CNS

Row | Structure (SMILES) | GI50 [1] | TGI [1] | GI50 [2] | TGI [2] | GI50 [3] | TGI [3] | GI50 [4] | TGI [4] | GI50 [5] | TGI [5] | GI50 [6] | TGI [6] | GI50 [7] | TGI [7] | GI50 [8] | TGI [8] | GI50 [9] | TGI [9] | GI50 [10] | TGI [10]
1 | Cc1nc2cncc(C#Cc3cncc(C(=O)Nc4ccc(CN5CCN(C)CC5)c(C(F)(F)F)c4)c3)c2nc1C | 0.204 µM | 1.13 µM | 0.45 µM | 10.4 µM | 0.21 µM | 3.03 µM | 0.196 µM | 5.96 µM | 0.251 µM | 5.62 µM | 0.005 µM | 2.98 µM | 0.248 µM | 2.22 µM | 0.206 µM | 1.29 µM | 0.552 µM | 18.8 µM | 0.559 µM | 7.43 µM
2 | C=C(C)C(=O)OC1CC2(C)OC2CC(OC(C)=O)/C(C)=C/C2OC(=O)C(=C)C21 (configuration not stated) |  | 12.5 µM |  | 6.69 µM |  | 7.5 µM |  | 3.42 µM |  | > 91.3 µM |  | 33.7 µM |  | 3.61 µM |  | 18.6 µM |  | 15.3 µM |  | 25.1 µM
3 | COc1cc2c(c(OC)c1OC)-c1ccc(NNC(=S)N(Cc3cccc(C[N+](Cc4cccc(CNC56CC7CC(CC(C7)C5)C6)c4)(Cc4cccc(CNC56CC7CC(CC(C7)C5)C6)c4)Cc4cccc(CN(C(=S)NNc5ccc6c(cc5=O)[C@@H](NC(C)=O)CCc5cc(OC)c(OC)c(OC)c5-6)C56CC7CC(CC(C7)C5)C6)c4)c3)C34CC5CC(CC(C5)C3)C4)c(=O)cc1[C@@H](NC(C)=O)CC2 (some centres not stated) | 0.897 µM | 4.08 µM | 0.562 µM | 1.93 µM | 0.779 µM | 3.5 µM | 0.683 µM | 1.52 µM | 3 µM | 7.51 µM | 1.08 µM | 4.52 µM | 0.896 µM | 3.07 µM | 1.45 µM | 5.95 µM | 1.37 µM | 6.54 µM |  | 
4 | Nc1c(C(=O)c2cccc(-c3ccc[n+]([O-])c3)c2)cnn1-c1ccc(F)cc1F | > 25 µM | > 25 µM | > 25 µM | > 25 µM | 15.2 µM | > 25 µM | > 25 µM | > 25 µM | > 25 µM | > 25 µM | > 25 µM | > 25 µM | > 25 µM | > 25 µM | > 25 µM | > 25 µM | > 25 µM | > 25 µM | > 25 µM | > 25 µM
5 | Nc1ccc(-c2nc3ccccc3[nH]2)c(O)c1 | 5.82 µM | 45.2 µM | 39.7 µM | > 100 µM | 28.2 µM | 64.6 µM | 35 µM | > 100 µM | > 100 µM | > 100 µM | 17.9 µM | 57.4 µM | 16.3 µM | 40.7 µM | > 100 µM | > 100 µM | 27.6 µM | > 100 µM | 60.3 µM | > 100 µM
6 | Cn1c(=O)c(Oc2cccc(F)c2)cc2cnc(NC3CCOCC3)nc21 | 4.47 µM | 24.5 µM |  |  | > 25 µM | > 25 µM | > 25 µM | > 25 µM | > 25 µM | > 25 µM | > 25 µM | > 25 µM | > 25 µM | > 25 µM | 24.8 µM | > 25 µM | > 25 µM | > 25 µM | > 25 µM | > 25 µM
7 | CCN(CC)c1ccc(N=C2C=C(C(=O)Nc3ccc(S(C)(=O)=O)cc3)C(=O)c3ccccc32)c(C)c1 | > 100 µM | > 100 µM | > 100 µM | > 100 µM | 7.49 µM | 54.8 µM | 32.7 µM | > 100 µM | 9.45 µM | > 100 µM | 1.03 µM | > 100 µM | 12.6 µM | > 100 µM |  |  | 2.4 µM | > 100 µM | 4.69 µM | > 100 µM
8 | Cc1ccc2c[c]1[Hg][CH2]COS2(=O)=O | 19.5 µM | 38.3 µM | 18.1 µM | 34.1 µM | 24.7 µM | 39.4 µM | 18.8 µM | 32.8 µM | > 100 µM | > 100 µM |  |  | 16.6 µM | 30.2 µM | 5.3 µM | 20.7 µM | 18 µM | 32.4 µM | 17.5 µM | 31.3 µM
9 | C[N+](C)([O-])CCCNc1c2ccccc2nc2cccc([N+](=O)[O-])c12 |  | 0.806 µM |  |  |  | 0.647 µM |  | 0.322 µM |  | > 29.4 µM |  | 4.36 µM |  | 1.02 µM |  |  |  | 8.14 µM |  | 2.24 µM
10 | CCCCCCCCCCCCCC[P+](CCCCCC)(CCCCCC)CCCCCC | 0.0299 µM | 0.423 µM | 0.0689 µM | 0.952 µM | 0.0372 µM | 0.391 µM | 0.144 µM | 2.08 µM | 0.2 µM |  | 0.0397 µM | 0.375 µM | 0.0606 µM | > 100 µM | 0.0705 µM | 25.7 µM |  |  | 0.0384 µM | 1.29 µM
